This note sets out measurements from EP4559916A1, “PHARMACEUTICALLY ACCEPTABLE SALT AND POLYMORPH OF SUBSTITUTED PYRAZOLO[1,5-A]PYRIMIDIN-7-AMINE DERIVATIVE AND USE THEREOF” (Shanghai Haiyan Pharmaceutical Technology Co., Ltd., priority 2022, dated 2024).

Molecules are shown by their SMILES.

A short description of data set [1]: In vivo pharmacokinetic test in mice. To be noted: male ICR mice, gavage administration 10 mg/kg. The procedure:
Test animals: healthy adult male ICR mice (weighing 30-40 g, 12 mice, intravenous injection group mice drinking water and diet ad libitum, gavage group fasting overnight, drinking water and diet ad libitum 4 h after administration), provided by Beijing Vital River Laboratory Animal Co. LTD;
Administration method and dosage: ICR mice were administered via caudal vein administration (2 mg/kg, 5% DMSO, pH 4.5 20% Captisol) and gavage administration (10 mg/kg, 5% DMSO, pH 4.5 20% Captisol).
Blood sampling: Animals meeting the experimental requirements were selected prior to administrating, weighed and labeled. Mice were bound prior to blood sampling, and each administrated mice was bled at a predetermined time point (caudal vein administration: blood samples were collected at 0.083 h, 0.25 h, 0.5 h, 1 h, 2 h, 4 h, 6 h, 7.5 h and 24 h after administration, totally 9 time points; gavage administration: blood samples were collected at 0.083 h, 0.25 h, 0.5 h, 1 h, 2 h, 4 h, 6 h, 7.5 h and 24 h after administration, totally 9 time points), and about 100 µL blood samples were collected through the orbit. The blood was transferred to a 1.5 mL test tube pre-added with K2EDTA, centrifuged for 4 min (8000 rpm, 4°C), and the plasma was removed. The whole process was completed within 15 min after blood collection. All samples were stored in a refrigerator at -20°C until sample analysis. LC/MS/MS method was used to determine drug concentrations.

Data set [2] has as its system MV4 -11 acute myeloid leukemia. In words: In vivo pharmacodynamic experiment, MV4-11 subcutaneous xenograft. Set-up: species or system BALB/c nude mice. To be noted: Oral, Once daily. The procedure:
In vivo pharmacodynamic experiments were performed on BALB/c nude mice subcutaneously implanted with MV4 -11 acute myeloid leukemia […] xenograft (CDX) based on human tumor cell lines.
Protocol: BALB/c nude mice, female, 6-10 weeks old, weighing approximately 20-23 grams, were maintained in a special pathogen-free environment and in individual ventilated cages (5 mice per cage, 2 cages of 10). All cages, bedding and water were disinfected prior to use. All animals had free access to standard certified commercial laboratory diets. […] Each mouse was implanted with tumor cells subcutaneously in the right flank (1×10^7 0.1 ml+Matrigel 0.1 ml) for tumor growth. When the average tumor volume reached about 165 cubic mm, randomization was performed according to body weight and tumor volume, and administration was started. The test compound was administered orally by gavage daily. Antitumor efficacy was determined by dividing the average tumor increase volume of animals treated with the compound by the average tumor increase volume of untreated animals.
Tumor volume was measured twice weekly with a two-dimensional caliper, and volumes were measured in cubic millimeters. Tumor volume TV=0.5a×b^2. Wherein, a is the long diameter of the tumor and b is the short diameter of the tumor.
T/C(%) is the percentage of the relative tumor volume (RTV) between the treatment group and the control group at a certain time point. The calculation Formula is as follows: T/C% = TRTV/CRTV×100% (TRTV: mean RTV of treatment group; CRTV: mean RTV of vehicle control group; RTV=Vt/V0, V0 is tumor volume of the animal at grouping, Vt is tumor volume of the animal after treatment). mpk is mg/kg body weight.
Body weight change (%) of tumor-bearing animals was calculated as follows: (body weight at measurement - body weight at grouping)/body weight at grouping × 100.

Data set [3] in a line: Rough solubility in pH 4.5 and pH 6.8 buffers at room temperature. It counts as physicochemical.
Data set [4] in a line: Stability test: changes in crystal form (XRPD) under high temperature and accelerated conditions. It counts as physicochemical. To be noted: for changes in crystal form: 60°C (high temperature) and 40°C to 75% RH (accelerated), day 7, day 20, day 30, day 60. The procedure:
X-ray powder diffraction (XRPD): in the present disclosure, the above crystalline or amorphous powder X-ray diffraction pattern was obtained by a known method in the art using an ARL Equinox3000 X-ray powder diffraction analyzer.
(§1) The changes in crystal form were detected at day 7, day 20, day 30, and day 60, respectively. […] (2) About 40 mg of phosphate crystal form I (prepared with reference to Example 1 of the present application) was weighed into a glass vial , and ethanol (1 mL) was added thereto, the glass vial was sealed and shaken at 50°C and 150 r/min for seven days, then centrifuged to collect the solid and the solvent was evaporated. […] Samples were taken and the related substances were determined. […]

A short description of data set [5]: Hygroscopicity test according to Chinese Pharmacopoeia 2020, volume IV, 9103. It counts as physicochemical. An excerpt: (§2) Chinese Pharmacopoeia 2020, volume IV, 9103 Guidelines for Hygroscopicity Test of Drugs specifies the definition of hygroscopicity characteristics and hygroscopicity weight gain: (1) deliquescence: absorbing sufficient water to form a liquid; (2) extremely hygroscopicity: hygroscopicity weight gain of not less than 15%; (3) hygroscopicity: hygroscopicity weight gain of less than 15% but not less than 2%; (4) slightly hygroscopicity: hygroscopicity weight gain of less than 2% but not less than 0.2%; (5) no or almost no hygroscopicity: moisture gain is less than 0.2%.

A short description of data set [6]: Solubility in 0.1 mol/L hydrochloric acid and pH 6.8 phosphate buffer, 24 h at 37°C. It counts as physicochemical. To be noted: for solubility: 1440 min.
Data set [7] can be described thus: Chemical stability: related substances after 80°C for one week with water added. The format is physicochemical. To be noted: for Phosphate content (80°C, 7 d): 25 mg sample with 5 mg water, oven at 80°C.
Data set [8] is described as follows: Dynamic vapor sorption (DVS) measurement. It counts as physicochemical. Particulars: for weight gain due to moisture absorption: DVS, 80% RH, 25°C; for hygroscopicity: from DVS weight gain at 80% RH. The procedure: Dynamic vapor sorption (DVS) curve: a dynamic vapor sorption curve was collected on a DVS Intrinsic of SMS (Surface Measurement Systems). The relative humidity at 25°C was calibrated using the deliquescent points of LiCl, Mg(NO3)2 and KCl.
as §2

Data set [9] in a line: Crystal form conversion: suspension shaking in ethanol. Particulars: ethanol (1 mL), sealed, shaken at 50°C and 150 r/min for seven days. It counts as physicochemical. The procedure: as §1
For data set [10], the target named is T1, CDK9/CycT (Homo sapiens, UniProt P50750).
T1 construct: purchased Carna Bioscience 04-110
The data set is described as follows: LANCE Ultra kinase activity inhibition test, CDK9. It counts as biochemical. Particulars: ATP 10 µM. From the text: In the following LANCE Ultra test method, kinase reagents were purchased from Carna Bioscience, reaction substrates and detection reagents were purchased from Perkin Elmer, and the remaining reagents were purchased from Thermo scientific.
The LANCE Ultra method was used to determine the inhibitory effect of the test substance on the kinase activity of CDK1/CycB (Carna bioscience, #04-102), CDK2/ CycA (Carna bioscience, #04-103), CDK9/CycT (Carna bioscience, #04-110).
Each kinase in the test included three test groups: background group (Blank), non-inhibition group (PC) and compound test group (Test). […]
After the addition of the test solution, it was placed on a shaker and incubated at room temperature for 1 h in the dark. […] The 665 nm/615 nm values (hereinafter referred to as the Ratio value) were calculated for all groups, and the inhibition rate was calculated based on the Ratio value of each group; 2. […] XLFIT 5.0 software (IDBS, UK) was used for fitting, with logarithmic values of compound concentrations as the X axis and inhibition rates as the Y axis, and IC50 values of compounds were calculated using a four-parameter model.

A short description of data set [11]: physchem. Particulars: water.
[12] abbreviates: listed as phosphate crystal form II of the compound of Formula (I).
Where [13] appears, read: listed as phosphate crystal form I of the compound of Formula (I).

T1 sequence (P50750 whole entry): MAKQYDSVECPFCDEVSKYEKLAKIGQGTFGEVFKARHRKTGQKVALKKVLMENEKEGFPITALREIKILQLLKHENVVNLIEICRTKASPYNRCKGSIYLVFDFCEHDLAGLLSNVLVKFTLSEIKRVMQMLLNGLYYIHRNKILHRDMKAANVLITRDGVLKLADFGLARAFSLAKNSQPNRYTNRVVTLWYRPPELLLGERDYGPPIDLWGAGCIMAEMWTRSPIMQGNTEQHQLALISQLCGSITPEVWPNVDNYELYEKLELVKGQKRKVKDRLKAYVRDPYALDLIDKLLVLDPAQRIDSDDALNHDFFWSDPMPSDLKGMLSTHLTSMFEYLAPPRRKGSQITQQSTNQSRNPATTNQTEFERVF
T1 sequence (O60563 whole entry partner): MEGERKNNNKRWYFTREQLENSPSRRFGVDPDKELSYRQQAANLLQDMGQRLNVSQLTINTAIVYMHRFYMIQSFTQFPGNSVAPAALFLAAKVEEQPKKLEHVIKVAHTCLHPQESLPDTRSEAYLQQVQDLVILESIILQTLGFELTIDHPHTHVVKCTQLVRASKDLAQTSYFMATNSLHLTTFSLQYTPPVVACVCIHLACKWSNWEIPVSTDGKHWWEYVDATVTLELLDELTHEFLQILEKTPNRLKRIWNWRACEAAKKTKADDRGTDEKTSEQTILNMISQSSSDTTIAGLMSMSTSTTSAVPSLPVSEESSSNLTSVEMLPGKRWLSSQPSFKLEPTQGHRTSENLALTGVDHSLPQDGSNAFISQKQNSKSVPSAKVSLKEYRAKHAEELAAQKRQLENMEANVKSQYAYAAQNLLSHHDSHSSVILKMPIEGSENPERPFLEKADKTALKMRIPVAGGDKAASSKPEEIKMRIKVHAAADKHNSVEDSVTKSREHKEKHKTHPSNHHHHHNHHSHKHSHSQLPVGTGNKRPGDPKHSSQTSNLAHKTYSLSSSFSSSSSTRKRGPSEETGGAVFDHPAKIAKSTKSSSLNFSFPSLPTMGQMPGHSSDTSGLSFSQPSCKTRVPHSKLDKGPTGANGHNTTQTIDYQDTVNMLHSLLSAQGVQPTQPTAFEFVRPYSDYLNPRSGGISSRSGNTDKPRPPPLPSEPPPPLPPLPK

What is called T/C is the ratio of treated to control. `CCC(CC)c1cc(N[C@H]2CC[C@H](N)C2)n2nccc2n1` [Compound D, reference compound]: in data set [1], the “Area under the curve for oral administration AUC0-t” value amounted to 1191 ng·h/mL and the “Maximum oral plasma concentration Cmax” value is 433 ng/mL. In data set [2] (12.5 mpk), this compound yielded a Mean tumor weight of 0.35 g and a T/C of 45.04%. In data set [2] (25 mpk), this compound gave a Mean tumor weight of 0.02 g and a T/C of 2.04%.

`C[C@H](c1cc(N[C@H]2CC[C@H](N)C2)n2nccc2n1)C1CCC1` [L-tartrate crystal form I]: the “Solubility in pH 4.5 buffer” value in [3] (rough solubility, pH 4.5 buffer (acetic acid-sodium acetate system)) is listed as ≤43.3 mg/mL. The “Solubility in pH 6.8 buffer” value in data set [3] (rough solubility, pH 6.8 buffer (sodium dihydrogen phosphate-sodium hydroxide system)) is recorded as ≤21.8 mg/mL. In addition, the “changes in crystal form” value in data set [4] is recorded as “no obvious changes”. In addition, the “change of XRPD pattern” value in [4] (accelerated conditions (40°C-75% RH), 7 days and 2 months (60 days), FIG. 15) is recorded as “no obvious change”; in data set [4] (high temperature conditions (60°C), 7 days and 2 months (60 days)) it was “no obvious change”.

Regarding `C[C@H](c1cc(N[C@H]2CC[C@H](N)C2)n2nccc2n1)C1CCC1` [L-tartrate], the hygroscopicity result in [5] is reported as “slight hygroscopicity”.

The solubility is the concentration that dissolves in the medium under given conditions. In data set [6] (0.1N HCl), `C[C@H](c1cc(N[C@H]2CC[C@H](N)C2)n2nccc2n1)C1CCC1` [Phosphate crystal form II] gave a solubility of 39.14 mg/mL. Besides, the solubility in data set [6] (pH 6.8 phosphate buffer) turned out to be 33.63 mg/mL. In addition, in data set [4], the “changes in crystal form” value is on record as “no obvious changes”. Moreover, in data set [7], the “Phosphate content (0 d)” value was 99.64 and the “Phosphate content (80°C, 7 d)” value turned out to be 98.73. In [8], the “weight gain due to moisture absorption” value came to 0.45% and the hygroscopicity entry is given as “slight hygroscopicity”. Besides, in [8] (setting [12]), the “weight gain due to moisture absorption” value is given as 0.45% and the hygroscopicity entry was “slight hygroscopicity”.

With `C[C@H](c1cc(N[C@H]2CC[C@H](N)C2)n2nccc2n1)C1CCC1` [Phosphate crystal form I], the solubility in [3] (acetate buffer, pH 4.5, rough solubility, pH 4.5 buffer (acetic acid-sodium acetate system), read-out: Solubility in pH 4.5 buffer) is ≤ 33 mg/mL. Besides, the solubility in [3] (phosphate buffer, pH 6.8, rough solubility, pH 6.8 buffer (sodium dihydrogen phosphate-sodium hydroxide system), read-out: Solubility in pH 6.8 buffer) is ≤ 24.5 mg/mL. The solubility at 24 h in [6] (0.1n hcl) worked out at 22.5 mg/mL. Besides, in data set [6] (phosphate buffer, pH 6.8, pH 6.8 phosphate buffer), the solubility at 24 h stood at 22.5 mg/mL. For the same compound, in data set [4], the “changes in crystal form” value was “no obvious changes”. Besides, in data set [4] (high temperature conditions, 7 days and 30 days, Figure 16), the “change of XRPD pattern” value is on record as “no obvious change”. Moreover, the “crystal form of the obtained solid (XRPD)” value in data set [9] is “phosphate crystal form II”. Besides, in data set [7], the “Phosphate content (0 d)” value turned out to be 99.64 and the “Phosphate content (80°C, 7 d)” value is 98.66. Further, in data set [8] (setting [13]), the “weight gain due to moisture absorption” value came out at 9% and the hygroscopicity entry is recorded as “hygroscopicity (hygroscopicity weight gain of less than 15% but not less than 2%)”.

Broadly, the IC50 is the concentration at which inhibition is half-maximal. Low readings indicate higher potency, high ones lower potency. Regarding `C[C@H](c1cc(N[C@H]2CC[C@H](N)C2)n2nccc2n1)C1CCC1` [The compound of Formula (I), (1S,3S)-N1-(5-((S)-1-cyclobutylethyl)pyrazolo[1,5-a]pyrimidin-7-yl)cyclopentan-1,3-diamine], in [10], the IC50 was 0.012 µM. Moreover, the AUC(0-t) in data set [1] (mouse, plasma, po, read-out: Area under the curve for oral administration AUC0-t) was found to be 2960 ng·h/mL. Also, the Cmax in data set [1] (mouse, plasma, po, read-out: Maximum oral plasma concentration Cmax) was found to be 379 ng/mL. Moreover, in data set [2] (12.5 mpk), the Mean tumor weight amounted to 0.17 g and the T/C came to 21.50%. In data set [2] (25 mpk), the Mean tumor weight was determined as 0.01 g and the T/C worked out at 1.40%.

For the compound `C[C@H](c1cc(N[C@H]2CC[C@H](N)C2)n2nccc2n1)C1CCC1` [phosphate], the solubility in data set [11] was ≤ 26.6 mg/mL.
